# pIC50: −log10 of the molar value.
# Target: T1, human M1 receptor (Homo sapiens, UniProt P11229)
# T1 sequence (P11229 1-460): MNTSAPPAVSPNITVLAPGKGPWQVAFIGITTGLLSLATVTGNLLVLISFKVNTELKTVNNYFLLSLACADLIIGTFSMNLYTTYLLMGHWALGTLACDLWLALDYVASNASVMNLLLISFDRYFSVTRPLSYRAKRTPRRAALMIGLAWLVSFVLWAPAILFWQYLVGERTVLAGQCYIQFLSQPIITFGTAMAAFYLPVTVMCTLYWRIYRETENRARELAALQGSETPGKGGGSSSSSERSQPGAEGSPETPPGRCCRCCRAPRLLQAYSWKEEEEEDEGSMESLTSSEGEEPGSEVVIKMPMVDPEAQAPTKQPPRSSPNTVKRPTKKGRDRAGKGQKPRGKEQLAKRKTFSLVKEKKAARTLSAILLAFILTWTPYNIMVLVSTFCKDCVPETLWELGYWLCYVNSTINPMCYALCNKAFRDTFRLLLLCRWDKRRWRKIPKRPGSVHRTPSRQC
# Test: In vitro functional assay of muscarinic acetylcholine receptor activity (aequorin calcium flux, reversal of EC80 acetylcholine response)
# Format: cell-based
# Details: CHO-K1 cells stably expressing human M1 receptor with aequorin; acetylcholine at EC80; calcium flux (luminescence); read-out: M1 IC50
# Procedure, shortened: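 Antagonist mode: compound (final 0.1% DMSO) and coelenterazine-loaded M1/aequorin CHO-K1 cells incubated 30 min in the dark before EC80 acetylcholine addition. Calcium flash integrated as 40 s luminescence AUC; IC50 derived from dose-response curves.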
row,Structure (SMILES),pIC50
1,"COc1ccc(C2(OCC(=O)N3CC4CCC(C3)N4c3ccc(C#N)cn3)CCC2)nc1 [Example 256, 6-(3-(2-(1-(5-methoxypyridin-2-yl)cyclobutoxy)acetyl)-3,8-diazabicyclo[3.2.1]octan-8-yl)nicotinonitrile]",5.00 to 6.00
2,"COc1ccc(C2(OCC(=O)N3CC4CCC(C3)N4c3ccc(C#N)cn3)CCC2)cn1 [Example 257, 6-(3-(2-(1-(6-methoxypyridin-3-yl)cyclobutoxy)acetyl)-3,8-diazabicyclo[3.2.1]octan-8-yl)nicotinonitrile]",5.00 to 6.00
3,"COc1ccncc1C1(OCC(=O)N2CC3CCC(C2)N3c2ccc(C#N)cn2)CCC1 [Example 258, 6-(3-(2-(1-(4-methoxypyridin-3-yl)cyclobutoxy)acetyl)-3,8-diazabicyclo[3.2.1]octan-8-yl)nicotinonitrile]",> 8.00
4,"CCOc1cncc(C2(OCC(=O)N3CC4CCC(C3)N4c3ccc(C#N)cn3)CCC2)c1 [Example 259, 6-(3-(2-(1-(5-ethoxypyridin-3-yl)cyclobutoxy)acetyl)-3,8-diazabicyclo[3.2.1]octan-8-yl)nicotinonitrile]",7.00 to 8.00
5,"N#Cc1ccc(N2C3CCC2CN(C(=O)COC2(c4cncnc4)CCC2)C3)nc1 [Example 262, 6-(3-(2-(1-(pyrimidin-5-yl)cyclobutoxy)acetyl)-3,8-diazabicyclo[3.2.1]octan-8-yl)nicotinonitrile]",6.00 to 7.00
6,"COc1cc(C2(OCC(=O)N3CC4CCC(C3)N4c3ccc(C#N)cn3)CCC2)ncn1 [Example 263, 6-(3-(2-(1-(6-methoxypyrimidin-4-yl)cyclobutoxy)acetyl)-3,8-diazabicyclo[3.2.1]octan-8-yl)nicotinonitrile]",7.00 to 8.00
7,"COc1ccnc(C2(OCC(=O)N3CC4CCC(C3)N4c3ccc(C#N)cn3)CCC2)n1 [Example 264, 6-(3-(2-(1-(4-methoxypyrimidin-2-yl)cyclobutoxy)acetyl)-3,8-diazabicyclo[3.2.1]octan-8-yl)nicotinonitrile]",> 8.00
8,"Cc1noc(C)c1C1(OCC(=O)N2CC3CCC(C2)N3c2ccc(C#N)cn2)CCC1 [Example 265, 6-(3-(2-(1-(3,5-dimethylisoxazol-4-yl)cyclobutoxy)acetyl)-3,8-diazabicyclo[3.2.1]octan-8-yl)nicotinonitrile]",> 8.00
9,"Cc1csc(C2(OCC(=O)N3CC4CCC(C3)N4c3ccc(C#N)cn3)CCC2)n1 [Example 266, 6-(3-(2-(1-(4-methylthiazol-2-yl)cyclobutoxy)acetyl)-3,8-diazabicyclo[3.2.1]octan-8-yl)nicotinonitrile]",6.00 to 7.00
10,"COc1cc(C2(OCC(=O)N3CC4CCC(C3)N4c3ccc(C#N)cn3)CCCC2)ccn1 [Example 267, 6-(3-(2-((1-(2-methoxypyridin-4-yl)cyclopentyl)oxy)acetyl)-3,8-diazabicyclo[3.2.1]octan-8-yl)nicotinonitrile]",7.00 to 8.00
11,"N#Cc1ccc(N2C3CCC2CN(C(=O)COC2(c4cncc(F)c4)CCCC2)C3)nc1 [Example 268, 6-(3-(2-((1-(5-fluoropyridin-3-yl)cyclopentyl)oxy)acetyl)-3,8-diazabicyclo[3.2.1]octan-8-yl)nicotinonitrile]",7.00 to 8.00
12,"N#Cc1ccc(N2C3CCC2CN(C(=O)COC2(c4c(F)cnc(Br)c4F)CCC2)C3)nc1 [Example 270, 6-(3-(2-(1-(2-bromo-3,5-difluoropyridin-4-yl)cyclobutoxy)acetyl)-3,8-diazabicyclo[3.2.1]octan-8-yl)nicotinonitrile]",> 8.00
13,"N#Cc1ccc(N2C3CCC2CN(C(=O)COC2(c4ncc(F)cc4F)CCC2)C3)nc1 [Example 271, 6-(3-(2-(1-(3,5-difluoropyridin-2-yl)cyclobutoxy)acetyl)-3,8-diazabicyclo[3.2.1]octan-8-yl)nicotinonitrile]",6.00 to 7.00
14,"COc1ncc(F)c(C2(OCC(=O)N3CC4CCC(C3)N4c3ccc(C#N)cn3)CCC2)c1F [Example 272, 6-(3-(2-(1-(3,5-difluoro-2-methoxypyridin-4-yl)cyclobutoxy)acetyl)-3,8-diazabicyclo[3.2.1]octan-8-yl)nicotinonitrile]",7.00 to 8.00
